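Each compound was tested at five concentrations against cells in 96-well plates for 48 hours. GI50 is the concentration that inhibits growth by half. TGI denotes the concentration required for complete inhibition of growth.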
Experiments:
Test in all cases: NCI-60 cell line screen, 48 h
RXF-631 renal = system: RXF-631 renal
DMS 114 small cell lung = system: DMS 114 small cell lung
KM20L2 colon = system: KM20L2 colon
T-47D breast = system: T-47D breast
MDA-N = system: MDA-N
MDA-MB-435 = system: MDA-MB-435
HS 578T breast = system: HS 578T breast
BT-549 breast = system: BT-549 breast
SNB-78 CNS = system: SNB-78 CNS

O=[N+]([O-])c1ccc(Sc2c3ccccc3nc3cc(Cl)ccc23)cc1
GI50 (RXF-631 renal): > 100 µM
TGI (RXF-631 renal): > 100 µM
GI50 (DMS 114 small cell lung): > 100 µM
TGI (DMS 114 small cell lung): > 100 µM
GI50 (KM20L2 colon): > 100 µM
TGI (KM20L2 colon): > 100 µM

O=C(O)[C@H](c1ccccc1)[C@@H](C(=O)O)c1ccccc1
TGI (T-47D breast): > 100 µM
TGI (MDA-N): > 100 µM
TGI (MDA-MB-435): > 100 µM
TGI (HS 578T breast): > 100 µM
TGI (BT-549 breast): > 100 µM

Cc1nc(C(N)=S)sc1C(=O)/C=C/c1c(O)ccc2ccccc12
TGI (RXF-631 renal): > 100 µM
TGI (SNB-78 CNS): > 100 µM
TGI (DMS 114 small cell lung): 98.1 µM
TGI (KM20L2 colon): > 100 µM

CC(C)(Oc1ccc(/C=C/C(=O)c2ccc(Cl)cc2)cc1)C(=O)Nc1c(Cl)cccc1Cl
TGI (RXF-631 renal): 45.3 µM
TGI (DMS 114 small cell lung): 33.7 µM
TGI (KM20L2 colon): 46.1 µM

CCCCN(CC)CC(C(C)=O)c1c(O)c2ccccc2oc1=O (stereo unspecified)
TGI (SNB-78 CNS): > 100 µM
TGI (DMS 114 small cell lung): > 100 µM
TGI (KM20L2 colon): > 100 µM

C/C(=N\NC(=O)CC#N)c1c(O)cc(C)oc1=O
TGI (RXF-631 renal): > 100 µM
TGI (SNB-78 CNS): > 100 µM
TGI (KM20L2 colon): > 100 µM

O=C(O)c1ccc(C2C(=O)N[C@@H]3CCC[C@H]23)cc1 (stereo partly specified)
TGI (SNB-78 CNS): > 100 µM
TGI (DMS 114 small cell lung): > 100 µM
TGI (KM20L2 colon): > 100 µM

O=[N+]([O-])c1ccc(-c2ccc(-c3csc(Nc4ccccc4)n3)o2)cc1
TGI (SNB-78 CNS): 38.4 µM
TGI (DMS 114 small cell lung): 63.5 µM
TGI (KM20L2 colon): 44.9 µM

C=C(C)C1C/C=C(/C)CCCC2(CCC3=C(CC(C(=C)C)C/C=C(/C)CCC3)O2)C(=O)C1 (stereo unspecified)
TGI (SNB-78 CNS): > 100 µM
TGI (DMS 114 small cell lung): > 100 µM
TGI (KM20L2 colon): > 100 µM

COC(=O)C(/C(=N\O)C(=O)Nc1cccc(Cl)c1C)c1cnc2ccccc2n1 (stereo unspecified)
TGI (T-47D breast): > 100 µM
TGI (MDA-N): > 100 µM
TGI (MDA-MB-435): > 100 µM
TGI (BT-549 breast): > 100 µM

c1c[nH]c(CN2CCOCC2)n1
TGI (T-47D breast): > 100 µM
TGI (MDA-N): > 100 µM
TGI (MDA-MB-435): > 100 µM
TGI (HS 578T breast): > 100 µM
TGI (BT-549 breast): > 100 µM

CC(C)(C)C(=O)[CH-]C(=O)C(C)(C)C.CC(C)(C)C(=O)[CH-]C(=O)C(C)(C)C.CN(C)c1ccc([O-])cc1.CN(C)c1ccc([O-])cc1.[Ti+4]
GI50 (RXF-631 renal): > 100 µM
TGI (RXF-631 renal): > 100 µM
GI50 (SNB-78 CNS): > 100 µM
TGI (SNB-78 CNS): > 100 µM
GI50 (DMS 114 small cell lung): > 100 µM
TGI (DMS 114 small cell lung): > 100 µM
GI50 (KM20L2 colon): > 100 µM
TGI (KM20L2 colon): > 100 µM

C[N+](C)(C)CC1CCCCC1O (stereo unspecified)
TGI (RXF-631 renal): > 100 µM
TGI (SNB-78 CNS): > 100 µM
TGI (KM20L2 colon): > 100 µM

CC(=O)c1ccc(O)c(CN(C2CCCCC2)C2CCCCC2)c1O
TGI (T-47D breast): > 100 µM
TGI (MDA-N): > 100 µM
TGI (MDA-MB-435): > 100 µM
TGI (HS 578T breast): > 100 µM
TGI (BT-549 breast): > 100 µM

CCOC(=O)C1SC(=Nc2ccc(Cl)cc2)N=C1C (stereo unspecified)
TGI (SNB-78 CNS): 89.3 µM
TGI (DMS 114 small cell lung): 81 µM
TGI (KM20L2 colon): 33.4 µM

COc1ccc(C(=O)NCCN(C)C)c2nc3ccccc3nc12
TGI (RXF-631 renal): > 100 µM
TGI (SNB-78 CNS): 38.4 µM
TGI (DMS 114 small cell lung): 12.5 µM
TGI (KM20L2 colon): 26.5 µM

Cc1ccccc1NC(=O)C1C(=O)N(c2ccccc2C)C(=O)/C1=N\NC(N)=S (stereo unspecified)
TGI (RXF-631 renal): > 100 µM
TGI (KM20L2 colon): > 100 µM

CCCCN(CCCC)C(=O)/C(CC(=O)c1cccc2ccccc12)=N\NC(=O)c1cc2ccccc2cc1O
TGI (RXF-631 renal): 70.5 µM
TGI (SNB-78 CNS): 99.7 µM
TGI (KM20L2 colon): 51.3 µM

COC(=O)C1(O)CC(=O)CCC1c1ccc(OC)cc1 (stereo unspecified)
TGI (RXF-631 renal): > 100 µM
TGI (SNB-78 CNS): > 100 µM
TGI (DMS 114 small cell lung): > 100 µM
TGI (KM20L2 colon): > 100 µM

O=C(/C=C/c1ccccc1)c1ccc(NCc2nc3ccccc3[nH]2)cc1
TGI (SNB-78 CNS): 20.7 µM
TGI (DMS 114 small cell lung): 12.4 µM
TGI (KM20L2 colon): 9.06 µM

CCN(C(=O)/C=C/c1ccco1)c1ccccc1
TGI (T-47D breast): > 100 µM
TGI (MDA-N): > 100 µM
TGI (MDA-MB-435): > 100 µM
TGI (HS 578T breast): > 100 µM
TGI (BT-549 breast): > 100 µM

Cn1c2c(c3ccccc31)CCN(CCN1CCN(c3cccc(Cl)c3)CC1)C2=O
TGI (DMS 114 small cell lung): > 100 µM
TGI (KM20L2 colon): > 100 µM

Cc1c2ccccc2cc2ccc3oc([N+](=O)[O-])cc3c12
TGI (SNB-78 CNS): > 100 µM
TGI (DMS 114 small cell lung): > 100 µM
TGI (KM20L2 colon): > 100 µM

CN(C)C(=S)/N=c1\ssc(=S)n1Cc1ccncc1
TGI (RXF-631 renal): 38.4 µM
TGI (SNB-78 CNS): > 100 µM
TGI (DMS 114 small cell lung): 7.77 µM
TGI (KM20L2 colon): > 100 µM

O=C(N/N=C/c1cccc(F)c1)c1ccncc1
TGI (DMS 114 small cell lung): > 100 µM
TGI (KM20L2 colon): > 100 µM

C/C(=N/NC(=O)C[N+](C)(C)C)C(CN(C)C)C(=O)Nc1ccccc1 (stereo unspecified)
TGI (DMS 114 small cell lung): > 100 µM
TGI (KM20L2 colon): > 100 µM

Cc1ccccc1C(=O)N1CCN(C(=O)c2ccccc2C)CC1
TGI (RXF-631 renal): > 100 µM
TGI (SNB-78 CNS): > 100 µM
TGI (KM20L2 colon): > 100 µM

CC(C)(C)OC(=O)NCCCCCCCn1c2c(c3ccccc3c1=O)C(=O)c1ccccc1-2
GI50 (T-47D breast): 16.4 µM
TGI (T-47D breast): 78.1 µM
GI50 (MDA-MB-435): 82 µM
TGI (MDA-MB-435): > 100 µM
GI50 (HS 578T breast): 17.4 µM
TGI (HS 578T breast): 49.5 µM
GI50 (BT-549 breast): 22.4 µM
TGI (BT-549 breast): 46.6 µM

CC(NC(=O)N(C)C)NC(=O)N(C)C
TGI (T-47D breast): > 10 µM
TGI (MDA-N): > 10 µM
TGI (MDA-MB-435): > 10 µM
TGI (HS 578T breast): > 10 µM

CCOC(=O)/C(C#N)=C\C=C(/Cl)c1ccc(Cl)cc1
GI50 (T-47D breast): 2.83 µM
TGI (T-47D breast): 10.7 µM
GI50 (MDA-MB-435): 10.5 µM
TGI (MDA-MB-435): 32.9 µM
GI50 (HS 578T breast): 22.7 µM
TGI (HS 578T breast): 60.7 µM
GI50 (BT-549 breast): 25.8 µM
TGI (BT-549 breast): 68 µM

O=C1OCC2=C1C(c1ccccc1)c1cc3c(cc1N2CCO)OCO3 (stereo unspecified)
GI50 (T-47D breast): 3.12 µM
TGI (T-47D breast): > 50 µM
GI50 (MDA-MB-435): 0.563 µM
TGI (MDA-MB-435): 3.25 µM
GI50 (HS 578T breast): 2.72 µM
TGI (HS 578T breast): 33.7 µM
GI50 (BT-549 breast): 4.93 µM
TGI (BT-549 breast): > 50 µM

CCOC(=O)NC(=O)c1cn(CCN2CCN(C(=O)CCCCCCCCCCC(=O)N3CCN(CCn4cc(C(=O)NC(=O)OCC)c(=O)[nH]c4=O)CC3)CC2)c(=O)[nH]c1=O
TGI (DMS 114 small cell lung): > 100 µM

O=c1oc2ccccc2[n+]([O-])c1-c1ccccc1
TGI (RXF-631 renal): > 100 µM
TGI (SNB-78 CNS): > 100 µM
TGI (DMS 114 small cell lung): > 100 µM
TGI (KM20L2 colon): > 100 µM

Source: PubChem BioAssay (NCI)
